The experiment relates to Recombinant human cathepsin A. Nature of the experiment: Cathepsin A inhibitory activity (Bodipy FL-bradykinin substrate, microfluidic capillary electrophoresis). Format: biochemical. The conditions noted are these: read-out: CATH A IC50. As for the experimental part: Pharmacological Tests a) Cathepsin a Inhibitory Activity
Recombinant human cathepsin A (residues 29-480, with a C-terminal 10-His tag; R&D Systems, #1049-SE) was proteolytically activated with recombinant human cathepsin L (R&D Systems, #952-CY). Briefly, cathepsin A was incubated at 10 μg/ml with cathepsin L at 1 μg/ml in activation buffer (25 mM 2-(morpholin-4-yl)-ethanesulfonic acid (MES), pH 6.0, containing 5 mM dithiothreitol (DTT)) for 15 min at 37° C.
The activated cathepsin A was diluted in assay buffer (25 mM MES, pH 5.5, containing 5 mM DTT) and mixed with the test compound (dissolved in assay buffer containing (v/v) 3% DMSO) or, in the control experiments, with the vehicle in a multiple assay plate. After incubation for 15 min at room temperature, as substrate then bradykinin carrying an N-terminal ®Bodipy FL (4,4-difluoro-5,7-dimethyl-4-bora-3a,4a-diaza-s-indacene-3-propionyl) label (JPT Peptide Technologies GmbH; dissolved in assay buffer) was added to the mixture. The final concentration of cathepsin A was 833 ng/ml and the final concentration of labeled bradykinin 2 μM. After incubation for 15 min at room temperature the reaction was stopped by the addition of stop buffer (130 mM 2-(4-(2-hydroxy-ethyl)-piperazin-1-yl)-ethanesulfonic acid, pH 7.4, containing (v/v) 0.013% ®Triton X-100, 0.13% Coating Reagent 3 (Caliper Life Sciences), 6.5% DMSO and 20 μM ebelactone B (Sigma, # E0886)).
Uncleaved substrate and product were then separated by a microfluidic capillary electrophoresis on a LabChip® 3000 Drug Discovery System (12-Sipper-Chip; Caliper Life Sciences) and quantified by determination of the respective peak areas. Substrate turnover was calculated by dividing product peak area by the sum of substrate and product peak areas, and the enzyme activity and the inhibitory effect of the test compound thus quantified.

Data on 58 compounds can be found in patent US9150526B2, “Biaryl-propionic acid derivatives and their use as pharmaceuticals” (SANOFI, priority 2013, dated 2015).

As to `COc1ccc(Cl)cc1-c1cccc(C(CC(=O)O)c2nccs2)c1` (stereo not shown) [compound 1], the 50% inhibitory concentration (IC50) (as a rule, the point on the concentration scale where inhibition reaches its midpoint) was 160 nM.

On to `COc1ccc(C(C)C)cc1-c1cccc(C(CC(=O)O)c2nccs2)c1` (stereo not shown) [compound 2], for which the IC50 came out at 132 nM.

For the compound `COc1ccc(F)cc1-c1cccc(C(CC(=O)O)c2nccs2)c1` (stereo not shown) [compound 3], the half-maximal inhibitory concentration (IC50) came to 160 nM.

As for `COc1ccc(C(C)(C)C)cc1-c1cccc(C(CC(=O)O)c2nccs2)c1` (stereo not shown) [compound 4], the IC50 worked out at 119 nM.

In the case of `COc1ccc(C(C)(C)C)cc1-c1cccc([C@H](CC(=O)O)c2nccs2)c1` [compound 5], the IC50 was found to be 35 nM.

`COc1ccc(C(C)(C)C)cc1-c1cccc([C@@H](CC(=O)O)c2nccs2)c1` [compound 6]: the concentration for half-maximal inhibition (IC50) came to 3380 nM.

On to `COc1cccc(OC)c1-c1cc(F)cc(C(CC(=O)O)c2ncc(C)s2)c1` (stereo not shown) [compound 7], for which the IC50 stood at 5 nM.

Consider `COc1ccc(Cl)cc1-c1cc(Cl)cc(C(CC(=O)O)c2ncc(C)s2)c1` (stereo not shown) [compound 8], for which the IC50 came out at 34 nM.

In the case of `COc1ccc(C(C)(C)C)cc1-c1cccc(C(CC(=O)O)c2nnc(C)o2)c1` (stereo not shown) [compound 9], the IC50 turned out to be 61 nM.

Turning to `COc1cccc(OC)c1-c1cc(Cl)cc(C(CC(=O)O)c2ncc(C)s2)c1` (stereo not shown) [compound 10], the IC50 is 7 nM.

Consider `COc1ccc(C(C)(C)C)cc1-c1cccc([C@@H](CC(=O)O)c2ncco2)c1` [compound 11], for which the IC50 was found to be 51 nM.

As to `COc1ccc(C(C)(C)C)cc1-c1cccc(C(CC(=O)O)c2ncco2)c1` (stereo not shown) [compound 13], the IC50 came out at 103 nM.

As for `COc1cc(C)cc(OC)c1-c1cccc(C(CC(=O)O)c2nccs2)c1` (stereo not shown) [compound 14], the IC50 worked out at 66 nM.

As for `COc1cc(C)cc(OC)c1-c1cccc(C(CC(=O)O)c2ncc(C)s2)c1` (stereo not shown) [compound 15], the IC50 amounted to 44 nM.

In the case of `COc1cc(C)cc(OC)c1-c1cccc(C(CC(=O)O)c2ncco2)c1` (stereo not shown) [compound 16], the IC50 was determined as 49 nM.

For the compound `COc1ccccc1-c1cccc(C(CC(=O)O)c2nccs2)c1` (stereo not shown) [compound 17], the IC50 is 154 nM.

For `COc1ccc(C(C)(C)C)cc1-c1cccc(C(CC(=O)O)c2nc(C)c(C)s2)c1` (stereo not shown) [compound 18], the IC50 was 530 nM.

Regarding `COc1ccc(Cl)cc1-c1cccc(C(CC(=O)O)c2nc(C)c(C)s2)c1` (stereo not shown) [compound 19], the IC50 came to 657 nM.

Take `COc1cccc(OC)c1-c1cccc(C(CC(=O)O)c2nccs2)c1` (stereo not shown) [compound 20]: the IC50 worked out at 30 nM.

Consider `COc1ccc(OC)c(-c2cccc(C(CC(=O)O)c3nccs3)c2)c1` (stereo not shown) [compound 21], for which the IC50 was 129 nM.

As for `COc1ccc(C(F)(F)F)cc1-c1cccc(C(CC(=O)O)c2nccs2)c1` (stereo not shown) [compound 22], the IC50 came out at 134 nM.

Regarding `COC(=O)c1ccc(OC)c(-c2cccc(C(CC(=O)O)c3nccs3)c2)c1` (stereo not shown) [compound 23], the IC50 was determined as 140 nM.

For the compound `COc1ccc(C)cc1-c1cccc(C(CC(=O)O)c2nccs2)c1` (stereo not shown) [compound 24], the IC50 is 147 nM.

For `CCOc1ccc(C)cc1-c1cccc(C(CC(=O)O)c2nccs2)c1` (stereo not shown) [compound 25], the IC50 turned out to be 147 nM.

Take `COc1cccc(F)c1-c1cccc(C(CC(=O)O)c2nccs2)c1` (stereo not shown) [compound 26]: the IC50 turned out to be 148 nM.

As to `COc1ccc(F)c(F)c1-c1cccc(C(CC(=O)O)c2nccs2)c1` (stereo not shown) [compound 27], the IC50 came out at 156 nM.

Consider `COc1cccc(OC(C)C)c1-c1cccc(C(CC(=O)O)c2nccs2)c1` (stereo not shown) [compound 28], for which the IC50 came to 165 nM.

For `COc1ccc(-c2cccc(C(CC(=O)O)c3nccs3)c2)c(OC)c1` (stereo not shown) [compound 29], the IC50 was 185 nM.

In the case of `COc1cc(CO)ccc1-c1cccc(C(CC(=O)O)c2nccs2)c1` (stereo not shown) [compound 30], the IC50 is 201 nM.

Take `COc1cccc(Cl)c1-c1cccc(C(CC(=O)O)c2nccs2)c1` (stereo not shown) [compound 31]: the IC50 came to 292 nM.

On to `COc1ccc(O)cc1-c1cccc(C(CC(=O)O)c2nccs2)c1` (stereo not shown) [compound 32], for which the IC50 turned out to be 307 nM.

`COc1ccc(CO)cc1-c1cccc(C(CC(=O)O)c2nccs2)c1` (stereo not shown) [compound 33]: the IC50 was determined as 333 nM.

For the compound `COc1ccc(OC(F)(F)F)cc1-c1cccc(C(CC(=O)O)c2nccs2)c1` (stereo not shown) [compound 34], the IC50 amounted to 389 nM.

In the case of `CC(C)Oc1ccccc1-c1cccc(C(CC(=O)O)c2nccs2)c1` (stereo not shown) [compound 35], the IC50 was 409 nM.

In the case of `COc1c(F)cc(F)cc1-c1cccc(C(CC(=O)O)c2nccs2)c1` (stereo not shown) [compound 36], the IC50 came to 467 nM.

For `COc1cc(F)ccc1-c1cccc(C(CC(=O)O)c2nccs2)c1` (stereo not shown) [compound 37], the IC50 amounted to 503 nM.

Regarding `COc1cc(Cl)ccc1-c1cccc(C(CC(=O)O)c2nccs2)c1` (stereo not shown) [compound 38], the IC50 amounted to 590 nM.

As to `COc1ccc(C#N)cc1-c1cccc(C(CC(=O)O)c2nccs2)c1` (stereo not shown) [compound 39], the IC50 was determined as 618 nM.

As to `COc1c(C)cccc1-c1cccc(C(CC(=O)O)c2nccs2)c1` (stereo not shown) [compound 40], the IC50 worked out at 844 nM.

As to `COc1cccc(-c2cccc(C(CC(=O)O)c3nccs3)c2)c1OC` (stereo not shown) [compound 41], the IC50 was determined as 950 nM.

Regarding `COc1c(F)cccc1-c1cccc(C(CC(=O)O)c2nccs2)c1` (stereo not shown) [compound 42], the 50% inhibitory concentration (IC50) worked out at 1040 nM.

In the case of `O=C(O)CC(c1cccc(-c2ccccc2OC(F)(F)F)c1)c1nccs1` (stereo not shown) [compound 43], the IC50 was 1230 nM.

In the case of `COc1c(Cl)cccc1-c1cccc(C(CC(=O)O)c2nccs2)c1` (stereo not shown) [compound 44], the half-inhibitory concentration (IC50) was 1280 nM.

For `COc1cc(C(N)=O)ccc1-c1cccc(C(CC(=O)O)c2nccs2)c1` (stereo not shown) [compound 45], the IC50 was 1380 nM.

With `COc1cc(OC(F)(F)F)ccc1-c1cccc(C(CC(=O)O)c2nccs2)c1` (stereo not shown) [compound 46], the IC50 was determined as 1530 nM.

In the case of `COc1cccc(C#N)c1-c1cccc(C(CC(=O)O)c2nccs2)c1` (stereo not shown) [compound 47], the IC50 amounted to 1750 nM.

Consider `COc1cc(C(F)(F)F)ccc1-c1cccc(C(CC(=O)O)c2nccs2)c1` (stereo not shown) [compound 48], for which the IC50 amounted to 2280 nM.

For the compound `COc1c(-c2cccc(C(CC(=O)O)c3nccs3)c2)cccc1C(F)(F)F` (stereo not shown) [compound 49], the IC50 stood at 7000 nM.

As for `COc1ccc(Cl)cc1-c1cccc(C(CC(=O)O)c2nnc(C)o2)c1` (stereo not shown) [compound 50], the IC50 is 108 nM.

As for `COc1cccc(OC)c1-c1cccc(C(CC(=O)O)c2ncc(C)s2)c1` (stereo not shown) [compound 51], the IC50 is 11 nM.

On to `COc1ccc(OC)c(-c2cccc(C(CC(=O)O)c3ncc(C)s3)c2)c1OC` (stereo not shown) [compound 52], for which the IC50 is 56 nM.

Take `COc1ccc(C)cc1-c1cccc(C(CC(=O)O)c2ncc(C)s2)c1` (stereo not shown) [compound 53]: the IC50 was 85 nM.

As for `COc1ccc(OC)c(-c2cccc(C(CC(=O)O)c3ncc(C)s3)c2)c1` (stereo not shown) [compound 54], the IC50 was determined as 94 nM.

In the case of `COc1ccc(F)cc1-c1cccc(C(CC(=O)O)c2ncc(C)s2)c1` (stereo not shown) [compound 55], the IC50 is 96 nM.

As for `COc1ccc(C(C)C)cc1-c1cccc(C(CC(=O)O)c2ncc(C)s2)c1` (stereo not shown) [compound 56], the IC50 was determined as 97 nM.

For the compound `COc1ccc(CO)cc1-c1cccc(C(CC(=O)O)c2ncc(C)s2)c1` (stereo not shown) [compound 57], the IC50 was found to be 131 nM.

On to `COc1cccc(Cl)c1-c1cccc(C(CC(=O)O)c2ncc(C)s2)c1` (stereo not shown) [compound 58], for which the IC50 came out at 155 nM.

On to `COc1cccc(F)c1-c1cccc(C(CC(=O)O)c2ncc(C)s2)c1` (stereo not shown) [compound 59], for which the IC50 worked out at 171 nM.
